Laboratory results: patent US11834440B2, “Beta-lactam derivatives for the treatment of diseases” (Insilico Medicine IP Limited, priority 2021, dated 2023)

Target: QPCTL (Homo sapiens (Human), UniProt Q9NXS2)
Assay: QPCTL inhibition, SensoLyte Green Glutaminyl Cyclase Activity Assay
Type: biochemical
Settings: 0.8 nM 2x enzyme solution, 45 min at 37° C., 50 mM Tris pH 8.0, 1% DMSO
Experimental: Preparation of working solution: 2×Glutaminyl Cyclase substrate was diluted in assay buffer to […]. 2×enzyme solution and QPCTL was diluted in assay buffer to 0.8 nM. Glutaminyl Cyclase Developer was diluted in assay buffer to 1×(containing 10 mM 1-Benzyl-Imidazole). Serial dilution of test compounds was performed in DMSO. The final DMSO concentration in 100 μl reaction was 1%. The assay buffer was 50 mM Tris, pH 8.0, 0.01% BSA.
Procedure: 50 μL of 2×Glutaminyl Cyclase substrate solution was added into the assay plate followed by 50 μL of 2×enzyme solution. The plate was centrifuged for 1 min at 1000 rmp. Next the plate was incubated for 45 minutes at 37° C. This was followed by the additional of 50 μL of the prepared Glutaminyl Cyclase developer and incubated for additional 30 min at 37° C. Results were read on SpectraMax Paradigm detecting with emission at Ex/Em=490 nm/520 nm.
A Z′ value was calculated for each assay plate. The Z′ value must be >0.5 or the plate was disqualified. […] Results were calculated using GraphPad Prism 7 software is used for IC50 determination.

Sequence of QPCTL (Q9NXS2 whole entry, species assumed): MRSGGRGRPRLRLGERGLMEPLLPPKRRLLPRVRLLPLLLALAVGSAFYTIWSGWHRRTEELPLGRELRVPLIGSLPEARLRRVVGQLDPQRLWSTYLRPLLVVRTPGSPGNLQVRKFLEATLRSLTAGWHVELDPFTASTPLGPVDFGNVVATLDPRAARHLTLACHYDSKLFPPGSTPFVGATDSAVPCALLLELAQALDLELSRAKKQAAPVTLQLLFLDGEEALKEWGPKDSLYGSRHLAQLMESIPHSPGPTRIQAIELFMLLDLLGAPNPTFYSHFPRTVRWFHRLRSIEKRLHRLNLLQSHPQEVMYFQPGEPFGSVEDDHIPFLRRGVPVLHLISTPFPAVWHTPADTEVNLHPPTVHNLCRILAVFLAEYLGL

Compound	IC50
Cc1ccc(-c2ccc([C@@H]3[C@H](C4CC4)C(=O)N3c3ccc4[nH]cnc4c3)c(C)n2)nn1 (single isomer, unassigned) [Compound 71A]	25 to 1000 nM
Cc1ccc(-c2ccc([C@H]3[C@@H](C4CC4)C(=O)N3c3ccc4[nH]cnc4c3)c(C)n2)nn1 (single isomer, unassigned) [Compound 71B]	< 2 nM
Cc1nc(-n2cnc(C(F)(F)F)c2)ccc1[C@@H]1[C@H](C2CC2)C(=O)N1c1ccc2[nH]cnc2c1 (single isomer, unassigned) [Compound 72A]	> 1000 nM
Cc1cc(-n2cnc(C(F)(F)F)c2)ccc1[C@@H]1[C@H](C2CC2)C(=O)N1c1ccc2[nH]cnc2c1 (single isomer, unassigned) [Compound 74A]	25 to 1000 nM
Cc1cc(-n2cnc(C(F)(F)F)c2)ccc1[C@H]1[C@@H](C2CC2)C(=O)N1c1ccc2[nH]cnc2c1 (single isomer, unassigned) [Compound 74B]	< 2 nM
O=C1[C@H](C2CC2)[C@H](c2ccc(-c3cnn(C(F)(F)F)c3)cc2Cl)N1c1ccc2[nH]cnc2c1 (single isomer, unassigned) [Compound 75B]	< 2 nM
O=C1[C@@H](C2CC2)[C@@H](c2ccc(-c3cnn(C(F)(F)F)c3)cc2C(F)(F)F)N1c1ccc2[nH]cnc2c1 (single isomer, unassigned) [Compound 76A]	< 2 nM
O=C1[C@@H](C2CC2)[C@@H](c2c(F)cc(-c3cnccn3)cc2F)N1c1ccc2[nH]cnc2c1 [Compound 53A]	> 1000 nM

Continued, values first:

IC50	Compound
< 2 nM	Cc1nc(-n2cnc(C(F)(F)F)c2)ccc1[C@H]1[C@@H](C2CC2)C(=O)N1c1ccc2[nH]cnc2c1 (single isomer, unassigned) [Compound 72B]
25 to 1000 nM	Cc1cc(-n2cnc(C(F)(F)F)c2)ncc1[C@@H]1[C@H](C2CC2)C(=O)N1c1ccc2[nH]cnc2c1 (single isomer, unassigned) [Compound 73A]
< 2 nM	Cc1cc(-n2cnc(C(F)(F)F)c2)ncc1[C@H]1[C@@H](C2CC2)C(=O)N1c1ccc2[nH]cnc2c1 (single isomer, unassigned) [Compound 73B]
25 to 1000 nM	O=C1[C@@H](C2CC2)[C@@H](c2ccc(-c3cnn(C(F)(F)F)c3)cc2Cl)N1c1ccc2[nH]cnc2c1 (single isomer, unassigned) [Compound 75A]
> 1000 nM	O=C1[C@H](C2CC2)[C@H](c2ccc(-c3cnn(C(F)(F)F)c3)cc2C(F)(F)F)N1c1ccc2[nH]cnc2c1 (single isomer, unassigned) [Compound 76B]
25 to 1000 nM	O=C1[C@@H](C2CC2)[C@@H](c2c(F)cc(-c3ccc(C(F)(F)F)nn3)cc2F)N1c1ccc2[nH]cnc2c1 [Compound 52A]
